{"source": "patent EP3342399B1", "about": "“PHARMACEUTICAL COMPOSITIONS COMPRISING POSACONAZOLE AND MANUFACTURING METHOD” (Abdi Ibrahim Ilac Sanayi ve Ticaret A.S., priority 2016, dated 2018)", "origin": "cited, not measured here", "note": "Read-outs that look alike come from different tables or passages of the source.", "data": [{"molecule": "CC[C@@H]([C@H](C)O)n1ncn(-c2ccc(N3CCN(c4ccc(OC[C@@H]5CO[C@@](Cn6cncn6)(c6ccc(F)cc6F)C5)cc4)CC3)cc2)c1=O", "note": "[Posaconazole, 1-[(1S,2S)-1-Ethyl-2-hydroxypropyl]-4-{4-[4-(4-{2-[(2S,4R)-(1,2,4-triazol-1-ylmetyl)-2-(2,4-difluorophenyl)-oxolan-4-ylmetyl]phenyl}piperazin-1-yl)phenyl]}-2,3-dihydro-1,2,4-triazol-3-one]", "values": [{"measurement": "permeability", "setting": "BCS Class II", "value": "high"}, {"measurement": "solubility", "setting": "BCS Class II", "value": "low"}, {"measurement": "solubility", "setting": "at low pH", "value": "high"}]}]}
